Measured values published in ChEMBL document CHEMBL4138213, “Synthesis and biological characterization of ubenimex-fluorouracil conjugates for anti-cancer therapy” (Eur J Med Chem, 2018).
Calls of active or inactive are those of the source. The rule behind the calls is not given here.

Key:
cells = settings: Homo sapiens, ES-2, 48 h
Description: Antiproliferative activity against human ES2 cells after 48 hrs by MTT assay

Aminopeptidase N = biological target: T1, Aminopeptidase N (Sus scrofa, UniProt P15145); experiment: Inhibition of porcine kidney CD13 using L-leucine-p-nitroanilide as substrate preincubated for 5 mins followed by substrate addition measured after 30 mins
T1 sequence (P15145 whole entry): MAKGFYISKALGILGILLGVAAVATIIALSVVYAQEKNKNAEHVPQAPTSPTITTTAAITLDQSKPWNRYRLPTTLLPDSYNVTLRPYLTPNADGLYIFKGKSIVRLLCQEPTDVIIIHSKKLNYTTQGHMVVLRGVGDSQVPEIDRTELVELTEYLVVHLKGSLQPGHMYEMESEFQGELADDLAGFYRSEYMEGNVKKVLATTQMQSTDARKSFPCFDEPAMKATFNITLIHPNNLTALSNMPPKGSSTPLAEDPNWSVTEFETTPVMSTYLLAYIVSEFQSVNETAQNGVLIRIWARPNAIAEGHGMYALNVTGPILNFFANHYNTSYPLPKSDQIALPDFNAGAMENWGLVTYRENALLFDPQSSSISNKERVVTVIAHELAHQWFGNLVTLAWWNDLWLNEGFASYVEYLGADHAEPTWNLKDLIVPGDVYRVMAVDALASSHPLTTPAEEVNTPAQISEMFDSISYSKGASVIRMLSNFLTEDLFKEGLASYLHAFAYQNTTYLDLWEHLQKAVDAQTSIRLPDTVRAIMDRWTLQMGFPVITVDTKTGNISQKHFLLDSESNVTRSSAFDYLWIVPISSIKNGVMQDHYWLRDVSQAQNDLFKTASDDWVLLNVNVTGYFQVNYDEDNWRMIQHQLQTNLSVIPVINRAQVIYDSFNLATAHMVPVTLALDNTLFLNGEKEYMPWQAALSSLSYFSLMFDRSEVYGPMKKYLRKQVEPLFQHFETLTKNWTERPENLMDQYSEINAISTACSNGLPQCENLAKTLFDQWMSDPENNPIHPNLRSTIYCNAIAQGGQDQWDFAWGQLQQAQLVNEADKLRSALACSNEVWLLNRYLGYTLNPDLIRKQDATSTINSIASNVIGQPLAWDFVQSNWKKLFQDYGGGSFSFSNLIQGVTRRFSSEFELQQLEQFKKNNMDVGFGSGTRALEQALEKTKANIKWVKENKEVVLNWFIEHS

PLC-PRF-5 [1] = experiment: Antiproliferative activity against human PLC/PRF/5 cells after 48 hrs by MTT assay; settings: PLC-PRF-5, 48 h
[2] = Volume of distribution during elimination phase in Wistar rat at 80 mg/kg, iv after 0.05 to 24 hrs by HPLC-MS/MS analysis; assay type: ADME, organism-based; settings: in vivo, read-out: Vz
Rattus norvegicus [3] = experiment: VRT (0 to infinity) in Wistar rat at 80 mg/kg, iv after 0.05 to 24 hrs by HPLC-MS/MS analysis; assay type: ADME, organism-based; settings: in vivo
[4] = (§1) MRT (0 to infinity) in Wistar rat at 80 mg/kg, iv after 0.05 to 24 hrs by HPLC-MS/MS analysis; assay type: ADME, organism-based; settings: Wistar, in vivo
[5] = Cmax in Wistar rat at 80 mg/kg, iv after 0.05 to 24 hrs by HPLC-MS/MS analysis; assay type: ADME, organism-based; parameters: dose 80 mg/kg, route intravenous; settings: in vivo
[6] = AUC (0 to infinity) in Wistar rat at 80 mg/kg, iv after 0.05 to 24 hrs by HPLC-MS/MS analysis; assay type: ADME, organism-based; parameters: dose 80 mg/kg, time infinity, route intravenous; settings: in vivo
[7] = Drug level in Wistar rat plasma treated with (5-fluoro-2,4-dioxo-3,4-dihydropyrimidin1(2H)-yl)methyl-2-((S)-2-((2S,3R)-3-amino-2-hydroxy-4-phenylbut-anamido)-4-methylpentanamido)acetate hydrochloride assessed as carboxylesterase-mediated compound formation at 80 mg/kg, iv by HPLC-MS/MS analysis; assay type: ADME, organism-based; settings: in vivo
[8] = (§2) Terminal Half life in Wistar rat at 80 mg/kg, iv after 0.05 to 24 hrs by HPLC-MS/MS analysis; assay type: ADME, organism-based; settings: Wistar, in vivo, read-out: beta t1/2 (converted)
[9] = Apparent clearance in Wistar rat at 80 mg/kg, iv after 0.05 to 24 hrs by HPLC-MS/MS analysis; assay type: ADME, organism-based; settings: in vivo, read-out: CL(app) (converted)
HepG2 = experiment: cells; settings: Homo sapiens, HepG2, 48 h
Mus musculus [10] = experiment: Toxicity in Kunming mouse xenografted with 5-FU-resistant […] H22 cells assessed as body weight loss at 82 mg/kg, iv measured for 14 days during compound dosing; assay type: organism-based; settings: in vivo, 336 h
PLC-PRF-5 [11] = experiment: Anticlonogenic activity against human PLC/PRF/5 cells after 2 weeks by Giemsa staining-based inverted microscopic method; assay type: functional, cell-based
PLC-PRF-5 [12] = experiment: Induction of apoptosis in human PLC/PRF/5 cells assessed as early apoptotic cells at 20 uM after 48 hrs by annexin-V-FITC/propidium iodide staining-based flow cytometric method (reference value: 5.82%); assay type: functional
[13] = Drug metabolism in Wistar rat plasma assessed as carboxylesterase-mediated 2-((S)-2-((2S,3R)-3-amino-2-hydroxy-4-phenylbutanamido)-4-methylpentan-amido)-acetic acid formation at 80 mg/kg, iv by HPLC-MS/MS analysis; assay type: ADME, organism-based; settings: in vivo
[14] = Drug metabolism in human plasma assessed as 5-FU formation at 4 mg/ml after 8 hrs by HPLC method; assay type: ADME, cell-free
[15] = Antiproliferative activity against human H7402 cells after 48 hrs by MTT assay; settings: H7402, 48 h
U-266 = experiment: Antiproliferative activity against human U266 cells after 48 hrs by MTT assay; settings: U-266, 48 h
Homo sapiens = species: Homo sapiens; experiment: Antiinvasive activity in human ES2 cells at 5 ug/ml after 24 hrs by transwell assay; assay type: functional, cell-based
U-937 = experiment: cells; settings: Homo sapiens, U-937, 48 h
Description: Antiproliferative activity against human U937 cells after 48 hrs by MTT assay

H22 [16] = experiment: Antitumor activity against 5-FU-resistant […] cells xenografted in Kunming mouse at 82 mg/kg, iv after 14 days; assay type: functional, organism-based
Rattus norvegicus [17] = experiment: as §1; assay type: ADME, organism-based; settings: in vivo
H22 [18] = experiment: Antitumor activity against […] cells xenografted in iv dosed mouse administered 5 days per week for 2 weeks; assay type: functional, organism-based
PLC-PRF-5 [19] = experiment: Induction of apoptosis in human PLC/PRF/5 cells assessed as necrotic cells at 20 uM after 48 hrs by annexin-V-FITC/propidium iodide staining-based flow cytometric method (reference value: 0.106%); assay type: functional
Rattus norvegicus [20] = experiment: as §2; assay type: ADME, organism-based; settings: in vivo
Thoracic aorta = experiment: Antiangiogenic activity in Wistar rat thoracic aorta ring assessed as inhibition of microvessels sprouting at 20 ug/ml treated every other day for 9 days; assay type: functional, tissue-based
PLC-PRF-5 [21] = experiment: Induction of apoptosis in human PLC/PRF/5 cells assessed as viable cells at 20 uM after 48 hrs by annexin-V-FITC/propidium iodide staining-based flow cytometric method (reference value: 93.7%); assay type: functional; settings: PLC-PRF-5, 48 h, read-out: Activity
PLC-PRF-5 [22] = experiment: Induction of apoptosis in human PLC/PRF/5 cells assessed as late apoptotic cells at 20 uM after 48 hrs by annexin-V-FITC/propidium iodide staining-based flow cytometric method (reference value: 0.341%); assay type: functional
[23] = Drug metabolism in Wistar rat plasma assessed as peptidase-mediated ubenimex formation at 80 mg/kg, iv by HPLC-MS/MS analysis; assay type: ADME, organism-based; settings: in vivo
Mus musculus [24] = experiment: Toxicity in Kunming mouse xenografted with 5-FU-resistant […] H22 cells assessed as mortality at 82 mg/kg, iv after 14 days; assay type: organism-based; settings: in vivo, 336 h
PLC-PRF-5 [25] = experiment: Induction of reactive oxygen species formation in human PLC/PRF/5 cells at 10 uM by DCF-DA staining-based flow cytometric method; assay type: functional, cell-based; settings: TDE = time-dependent effect
PLC-PRF-5 [26] = experiment: Downregulation of CD13 expression in human PLC/PRF/5 cells at 10 uM after 48 hrs by flow cytometric method; assay type: functional, cell-based
HCT-116 = experiment: cells; settings: Homo sapiens, HCT-116, 48 h
[27] = Drug metabolism in Wistar rat plasma assessed as carboxylesterase-mediated 5-FU formation at 80 mg/kg, iv by HPLC-MS/MS analysis; assay type: ADME, organism-based; settings: in vivo
H22 [28] = experiment: Antimetastatic activity in […] cells xenografted in iv dosed mouse assessed as decrease in lung metastasis nodus number administered 5 days followed by 2 days of withdrawal; assay type: functional, organism-based
A549 = experiment: Antiproliferative activity against human A549 cells after 48 hrs by MTT assay; settings: A549, 48 h

## CC(C)C[C@H](NC(=O)[C@@H](O)[C@H](N)Cc1ccccc1)C(=O)NCCC(=O)OCn1cc(F)c(=O)[nH]c1=O
cells
  IC50: 131 µM
Aminopeptidase N
  IC50: 0.68 µM
PLC-PRF-5 [1]
  IC50: 59 µM

## CC(C)C[C@H](NC(=O)[C@@H](O)[C@H](N)Cc1ccccc1)C(=O)NCC(=O)O.Cl
[2]
  Vd: 3.93 L/kg
Rattus norvegicus [3]
  VRT: 3.797 hr2
[4]
  MRT inf: 3.22 h
[5]
  Cmax: 8570 ng/mL
[6]
  AUC(0-inf): 36200 ng·h/mL
Aminopeptidase N
  IC50: 0.6 µM
[7]
  Drug metabolism: Metabolite_Detected
[8]
  half-life: 1.23 h
[9]
  clearance: 36.8 mL/min/kg

## CC(C)C[C@H](NC(=O)[C@@H](O)[C@H](N)Cc1ccccc1)C(=O)NCC(=O)OCn1cc(F)c(=O)[nH]c1=O.Cl
HepG2
  IC50: 14.2 µM
Mus musculus [10]
  Activity: Non-Toxic
PLC-PRF-5 [11]
  Activity: Dose-dependent effect
PLC-PRF-5 [12]
  Activity: 24.2%
[2]
  Vd: 6.23 L/kg
[13]
  Drug metabolism: Metabolite_Detected
[14]
  Drug metabolism: Metabolite_Detected
[15]
  IC50: 19.9 µM
U-266
  IC50: 31.6 µM
Homo sapiens
  Activity: Active
U-937
  IC50: 10.2 µM
H22 [16]
  Activity: Active
Rattus norvegicus [3]
  VRT: 4.423 hr2
Rattus norvegicus [17]
  MRT: 2.576 h
H22 [18]
  Activity: Dose-dependent effect
[5]
  Cmax: 5870 ng/mL
cells
  IC50: 23.5 µM
[6]
  AUC(0-inf): 14700 ng·h/mL
Aminopeptidase N
  IC50: 0.18 µM
PLC-PRF-5 [19]
  Activity: 0%
Rattus norvegicus [20]
  beta t1/2: 0.795 h
Thoracic aorta
  Activity: Active
PLC-PRF-5 [21]
  viability at 20 µM: 71.1%
PLC-PRF-5 [22]
  Activity: 4.69%
[9]
  clearance: 90.5 mL/min/kg
PLC-PRF-5 [1]
  IC50: 16.5 µM
[23]
  Drug metabolism: Metabolite_Detected
Mus musculus [24]
  Activity: Non-Toxic
PLC-PRF-5 [25]
  Activity: Tde
PLC-PRF-5 [26]
  Activity: Active
HCT-116
  IC50: 26 µM
[27]
  Drug metabolism: Metabolite_Detected
H22 [28]
  Activity: Dose-dependent effect
A549
  IC50: 15.3 µM

## CC(C)C[C@H](NC(=O)[C@@H](O)[C@H](N)Cc1ccccc1)C(=O)NCCCC(=O)OCn1cc(F)c(=O)[nH]c1=O
cells
  IC50: 110 µM
Aminopeptidase N
  IC50: 0.69 µM
PLC-PRF-5 [1]
  IC50: 53 µM

## CC(C)C[C@H](NC(=O)[C@@H](O)[C@H](N)Cc1ccccc1)C(=O)N[C@@H](C)C(=O)OCn1cc(F)c(=O)[nH]c1=O
cells
  IC50: 25.3 µM
Aminopeptidase N
  IC50: 0.17 µM
PLC-PRF-5 [1]
  IC50: 24.2 µM

## CC(C)C[C@H](NC(=O)[C@@H](O)[C@H](N)Cc1ccccc1)C(=O)OCn1cc(F)c(=O)[nH]c1=O
cells
  IC50: 26.1 µM
Aminopeptidase N
  IC50: 3.18 µM
PLC-PRF-5 [1]
  IC50: 18.4 µM

## CC(C)C[C@H](NC(=O)[C@@H](O)[C@H](N)Cc1ccccc1)C(=O)NCCCCCC(=O)OCn1cc(F)c(=O)[nH]c1=O
cells
  IC50: 104 µM
Aminopeptidase N
  IC50: 1.83 µM
PLC-PRF-5 [1]
  IC50: 60.1 µM
